Assay results taken from PubChem BioAssay AID248 (DTP/NCI, 2004).
Toxic doses and inconclusive results are not listed.

Tested on: L1210 leukemia ip in BDF1 mice, survival T/C
Test: NCI In Vivo Anticancer Drug Screen. Data for tumor model L1210 Leukemia (intraperitoneal) in B6D2F1 (BDF1) mice
Conditions: endpoint: mean survival time, higher = longer survival
Procedure, shortened: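 In this screen, tumor-bearing mice given compound are compared to those given vehicle, and their survival values are reported as a treated-to-control quotient.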

[1] = dose: 100.0 mg/kg/injection, schedule: Q04DX003 (ip), vehicle: Klucel (hydroxypropylcellulose) (HPC)
[2] = dose: 200.0 mg/kg/injection, schedule: Q04DX003 (ip), vehicle: Klucel (hydroxypropylcellulose) (HPC)
[3] = dose: 400.0 mg/kg/injection, schedule: Q04DX003 (ip), vehicle: Klucel (hydroxypropylcellulose) (HPC)
[4] = dose: 100.0 mg/kg/injection, schedule: Q04DX003 (ip), vehicle: saline with Tween-80
[5] = dose: 200.0 mg/kg/injection, schedule: Q04DX003 (ip), vehicle: saline with Tween-80
[6] = dose: 400.0 mg/kg/injection, schedule: Q04DX003 (ip), vehicle: saline with Tween-80
[7] = dose: 100.0 mg/kg/injection, schedule: Q01DX009 (ip), vehicle: saline with Tween-80
[8] = dose: 200.0 mg/kg/injection, schedule: Q01DX009 (ip), vehicle: saline with Tween-80
[9] = dose: 75.0 mg/kg/injection, schedule: Q01DX001 (ip), vehicle: saline
[10] = dose: 150.0 mg/kg/injection, schedule: Q01DX001 (ip), vehicle: saline
[11] = dose: 100.0 mg/kg/injection, schedule: Q01DX001 (ip), vehicle: saline
[12] = dose: 200.0 mg/kg/injection, schedule: Q01DX001 (ip), vehicle: saline
[13] = dose: 400.0 mg/kg/injection, schedule: Q01DX001 (ip), vehicle: saline
[14] = dose: 100.0 mg/kg/injection, schedule: Q04DX003 (ip), vehicle: saline
[15] = dose: 50.0 mg/kg/injection, schedule: Q04DX003 (ip), vehicle: saline

For `CC(=O)OC12CCC(O1)C1C(=O)OC(=O)C12` (centres undefined), the T/C [1] was 101 % of control, the T/C [2] was 97 % of control and the T/C [3] was 97 % of control.
In the case of `CCc1c(Nc2ccccc2C)nc(N)[nH]c1=O`, the T/C (dose: 100.0 mg/kg/injection, schedule: Q01DX Z (ip), vehicle: methylcellulose (MC)) is reported as 100 % of control and the T/C (dose: 200.0 mg/kg/injection, schedule: Q01DX Z (ip), vehicle: methylcellulose (MC)) is reported as 104 % of control.
With `CN(C)N=Nc1ccccc1C(=O)NNC(N)=S` the T/C (dose: 18.75 mg/kg/injection, schedule: Q01DX009 (ip), vehicle: Klucel (hydroxypropylcellulose) (HPC)) was 109 % of control, the T/C (dose: 37.5 mg/kg/injection, schedule: Q01DX009 (ip), vehicle: Klucel (hydroxypropylcellulose) (HPC)) was 116 % of control and the T/C (dose: 75.0 mg/kg/injection, schedule: Q01DX009 (ip), vehicle: Klucel (hydroxypropylcellulose) (HPC)) was 89 % of control.
In the case of `O=C1OC(=O)C2CC=CCC12` (centres undefined), the T/C [4] is reported as 106 % of control, the T/C [5] is reported as 106 % of control and the T/C [6] is reported as 98 % of control.
`Cc1ccc(/C=N\N=C\c2ccc(C)cc2)cc1` was tested, and the T/C [7] was 96 % of control and the T/C [8] was 91 % of control.
For `C[N+](C)(Cc1ccccc1)C1c2ccccc2-c2ccc(Br)cc21` (centres undefined), the T/C (dose: 12.5 mg/kg/injection, schedule: Q01DX009 (ip), vehicle: Klucel (hydroxypropylcellulose) (HPC)) was 97 % of control, the T/C (dose: 12.5 mg/kg/injection, schedule: Q04DX003 (ip), vehicle: Klucel (hydroxypropylcellulose) (HPC)) was 94 % of control and the T/C (dose: 25.0 mg/kg/injection, schedule: Q01DX009 (ip), vehicle: Klucel (hydroxypropylcellulose) (HPC)) was 92 % of control. The T/C (dose: 25.0 mg/kg/injection, schedule: Q04DX003 (ip), vehicle: Klucel (hydroxypropylcellulose) (HPC)) was 94 % of control, the T/C (dose: 50.0 mg/kg/injection, schedule: Q01DX009 (ip), vehicle: Klucel (hydroxypropylcellulose) (HPC)) was 96 % of control and the T/C (dose: 50.0 mg/kg/injection, schedule: Q04DX003 (ip), vehicle: Klucel (hydroxypropylcellulose) (HPC)) was 88 % of control.
For `Cc1cccc(-c2nc(N)nc(N)n2)c1C`, the T/C (dose: 50.0 mg/kg/injection, schedule: Q01DX009 (ip), vehicle: saline with Tween-80) was 97 % of control, the T/C [7] was 101 % of control and the T/C [8] was 101 % of control.
For `O=[As](O)(O)c1ccccc1Br`, the T/C [9] was 111 % of control, the T/C [10] was 105 % of control and the T/C (dose: 300.0 mg/kg/injection, schedule: Q01DX001 (ip), vehicle: saline) was 102 % of control.
For `CCOC(=O)NC1CCC2c3ccccc3C([N+](=O)[O-])(C1)c1ccccc12` (centres undefined), the T/C [4] was 106 % of control, the T/C [5] was 95 % of control and the T/C [6] was 90 % of control.
With `COC(=O)C1=CC(C(=O)OC)C(C(=O)OC)N2C=CSC2(C)C1` (centres undefined) the T/C [4] was 96 % of control, the T/C [5] was 96 % of control and the T/C [6] was 93 % of control.
With `CNC1C(O)C2CCC(C2)C1c1ccccc1` (centres undefined) the T/C (dose: 75.0 mg/kg/injection, schedule: Q01DX001 (ip), vehicle: Klucel (hydroxypropylcellulose) (HPC)) was 96 % of control, the T/C (dose: 150.0 mg/kg/injection, schedule: Q01DX001 (ip), vehicle: Klucel (hydroxypropylcellulose) (HPC)) was 105 % of control and the T/C (dose: 300.0 mg/kg/injection, schedule: Q01DX001 (ip), vehicle: Klucel (hydroxypropylcellulose) (HPC)) was 98 % of control.
With `Nc1ccc(C(=O)OCCCCC2CCCC2N)cc1` (centres undefined) the T/C [9] was 97 % of control and the T/C [10] was 113 % of control.
In the case of `O=C1NN=C(c2ccccc2)C1Cc1ccccc1` (centres undefined), the T/C [11] is reported as 94 % of control, the T/C [12] is reported as 94 % of control and the T/C [13] is reported as 105 % of control.
`COC(=O)C1=CCCCC(N2CCOCC2)=C1C(=O)OC` was tested, and the T/C [11] was 97 % of control, the T/C [12] was 101 % of control and the T/C [13] was 103 % of control.
In the case of `CC(O)Cc1c(Cc2ccccc2)nc(N)[nH]c1=O` (centres undefined), the T/C [14] is reported as 96 % of control, the T/C (dose: 200.0 mg/kg/injection, schedule: Q04DX003 (ip), vehicle: saline) is reported as 97 % of control and the T/C (dose: 400.0 mg/kg/injection, schedule: Q04DX003 (ip), vehicle: saline) is reported as 92 % of control.
`CCOP(=O)(OCC)C(c1ccccc1)C(c1ccccc1)c1ccccc1` (centres undefined) was tested, and the T/C (dose: 100.0 mg/kg/injection, schedule: Q04DX003 (ip), vehicle: other) was 97 % of control, the T/C (dose: 200.0 mg/kg/injection, schedule: Q04DX003 (ip), vehicle: other) was 93 % of control and the T/C (dose: 400.0 mg/kg/injection, schedule: Q04DX003 (ip), vehicle: other) was 101 % of control.
In the case of `CC(C)Sc1ncnc2nc[nH]c12`, the T/C (dose: 2.5 mg/kg/injection, schedule: Q01DX009 (sc), vehicle: steriod suspending solution) is reported as 97 % of control, the T/C (dose: 5.0 mg/kg/injection, schedule: Q01DX009 (sc), vehicle: steriod suspending solution) is reported as 100 % of control and the T/C (dose: 10.0 mg/kg/injection, schedule: Q01DX009 (sc), vehicle: steriod suspending solution) is reported as 96 % of control. For the same compound, the T/C (dose: 18.0 mg/kg/injection, schedule: Q01DX009 (ip), vehicle: saline with Tween-80) was 102 % of control, the T/C (dose: 27.0 mg/kg/injection, schedule: Q01DX009 (ip), vehicle: saline with Tween-80) was 104 % of control and the T/C (dose: 40.0 mg/kg/injection, schedule: Q01DX009 (ip), vehicle: saline with Tween-80) was 110 % of control. The T/C (dose: 60.0 mg/kg/injection, schedule: Q01DX009 (ip), vehicle: saline with Tween-80) was 109 % of control, the T/C (dose: 75.0 mg/kg/injection, schedule: Q01DX001 (sc), vehicle: steriod suspending solution) was 103 % of control and the T/C (dose: 75.0 mg/kg/injection, schedule: Q01DX009 (sc), vehicle: steriod suspending solution) was 166 % of control. For the same compound, the T/C (dose: 150.0 mg/kg/injection, schedule: Q01DX009 (sc), vehicle: steriod suspending solution) was 160 % of control.
`IP(c1ccccc1)(c1ccccc1)(c1ccccc1)N1C2CCCCC21` (centres undefined) was tested, and the T/C (dose: 0.15 mg/kg/injection, schedule: Q01DX009 (ip), vehicle: acetone) was 107 % of control, the T/C (dose: 0.31 mg/kg/injection, schedule: Q01DX009 (ip), vehicle: acetone) was 115 % of control and the T/C (dose: 0.62 mg/kg/injection, schedule: Q01DX009 (ip), vehicle: acetone) was 115 % of control. For the same compound, the T/C (dose: 0.62 mg/kg/injection, schedule: Q01DX009 (ip), vehicle: saline) was 112 % of control, the T/C (dose: 0.62 mg/kg/injection, schedule: Q04DX003 (ip), vehicle: saline) was 113 % of control and the T/C (dose: 1.2 mg/kg/injection, schedule: Q01DX001 (ip), vehicle: acetone) was 114 % of control. For the same compound, the T/C (dose: 1.25 mg/kg/injection, schedule: Q01DX009 (ip), vehicle: saline) was 104 % of control, the T/C (dose: 1.25 mg/kg/injection, schedule: Q04DX003 (ip), vehicle: saline) was 93 % of control and the T/C (dose: 2.5 mg/kg/injection, schedule: Q01DX001 (ip), vehicle: acetone) was 119 % of control. The T/C (dose: 2.5 mg/kg/injection, schedule: Q01DX009 (ip), vehicle: saline) was 114 % of control.
With `Cc1ccc(S(=O)(=O)N(C)c2ccc(I)c(Cl)c2Cl)cc1` the T/C [1] was 102 % of control, the T/C [2] was 96 % of control and the T/C [3] was 98 % of control.
With `CC1CC(C)S(=O)(=O)C1` (centres undefined) the T/C (dose: 12.5 mg/kg/injection, schedule: Q01DX009 (ip), vehicle: saline) was 94 % of control, the T/C (dose: 12.5 mg/kg/injection, schedule: Q04DX003 (ip), vehicle: saline) was 97 % of control and the T/C (dose: 25.0 mg/kg/injection, schedule: Q01DX001 (ip), vehicle: saline) was 104 % of control. For the same compound, the T/C (dose: 25.0 mg/kg/injection, schedule: Q01DX009 (ip), vehicle: saline) was 108 % of control, the T/C (dose: 25.0 mg/kg/injection, schedule: Q04DX003 (ip), vehicle: saline) was 95 % of control and the T/C (dose: 50.0 mg/kg/injection, schedule: Q01DX001 (ip), vehicle: saline) was 104 % of control. The T/C (dose: 50.0 mg/kg/injection, schedule: Q01DX009 (ip), vehicle: saline) was 91 % of control and the T/C [15] was 93 % of control.
With `CC(C)C1=CC23CCC4C(C)(C(=O)O)CCCC4(C)C2CC1C1C(=O)N(CCCN(C)C)C(=O)C13` (centres undefined) the T/C (dose: 75.0 mg/kg/injection, schedule: Q01DX001 (ip), vehicle: other) was 96 % of control and the T/C (dose: 150.0 mg/kg/injection, schedule: Q01DX001 (ip), vehicle: other) was 94 % of control.
With `CN(C)c1ccc(C=Nc2ccc(Cl)cc2)cc1` the T/C (dose: 100.0 mg/kg/injection, schedule: Q01DX001 (ip), vehicle: Klucel (hydroxypropylcellulose) (HPC)) was 91 % of control, the T/C [1] was 93 % of control and the T/C (dose: 200.0 mg/kg/injection, schedule: Q01DX001 (ip), vehicle: Klucel (hydroxypropylcellulose) (HPC)) was 93 % of control. The T/C [2] was 91 % of control, the T/C (dose: 400.0 mg/kg/injection, schedule: Q01DX001 (ip), vehicle: Klucel (hydroxypropylcellulose) (HPC)) was 90 % of control and the T/C [3] was 91 % of control.
With `CCN(CC)CCOC(=O)Nc1ccccc1` the T/C [15] was 98 % of control and the T/C [14] was 90 % of control.
